{
  "source": "paper PMC2810227",
  "about": "“3-O-Methylfunicone, a Selective Inhibitor of Mammalian Y-Family DNA Polymerases from an Australian Sea Salt Fungal Strain” (Marine Drugs, 2009)",
  "format_in_all_cases": "biochemical",
  "key": {"human pol ɛ": {"target": "T1, human pol ɛ (Homo sapiens, UniProt Q07864)", "T1 construct": "purified by nuclear fractionation of human peripheral blood cancer cells (Molt-4); endogenous in cells; host or cells: Molt-4", "assay": "DNA polymerase assay, pol ɛ", "settings": "100 μM", "from_the_text": "(§1) Pol α was purified from calf thymus by immuno-affinity column chromatography, as described by Tamai et al.. Recombinant rat pol β was purified from E. coli JMpβ5, as described by Date et al.. The human pol γ catalytic gene was cloned into pFastBac. Histidine-tagged enzyme was expressed using the BAC-TO-BAC HT Baculovirus Expression System according to the supplier’s manual (Life Technologies, MD, USA) and purified using ProBoundresin (Invitrogen Japan, Tokyo, Japan). Human pols δ and ɛ were purified by nuclear fractionation of human peripheral blood cancer cells (Molt-4) using the second subunit of pols δ and ɛ-conjugated affinity column chromatography, respectively. A truncated form of human pol η (residues 1–511) tagged with His6 at its C-terminal was expressed in E. coli cells and purified as described by Kusumoto et al.. A recombinant mouse pol ι tagged with His6 at its C-terminal was expressed and purified by Ni-NTA column chromatography as described elsewhere (Masutani et al., in preparation). […]\n(§2) The compounds were dissolved in distilled dimethyl sulfoxide (DMSO) at various concentrations and sonicated for 30 sec. […] Activity without the inhibitor was considered 100%, and the remaining activity at each concentration of the inhibitor was determined relative to this value. […]"}, "[1]": {"target": "T2, Klenow fragment of E. coli pol I (Escherichia coli, UniProt P00582)", "T2 construct": "the Klenow fragment of pol I from E. coli; purchased Worthington Biochemical Corp. (Freehold, NJ, USA)", "T2 sequence (P00582 324-928)": "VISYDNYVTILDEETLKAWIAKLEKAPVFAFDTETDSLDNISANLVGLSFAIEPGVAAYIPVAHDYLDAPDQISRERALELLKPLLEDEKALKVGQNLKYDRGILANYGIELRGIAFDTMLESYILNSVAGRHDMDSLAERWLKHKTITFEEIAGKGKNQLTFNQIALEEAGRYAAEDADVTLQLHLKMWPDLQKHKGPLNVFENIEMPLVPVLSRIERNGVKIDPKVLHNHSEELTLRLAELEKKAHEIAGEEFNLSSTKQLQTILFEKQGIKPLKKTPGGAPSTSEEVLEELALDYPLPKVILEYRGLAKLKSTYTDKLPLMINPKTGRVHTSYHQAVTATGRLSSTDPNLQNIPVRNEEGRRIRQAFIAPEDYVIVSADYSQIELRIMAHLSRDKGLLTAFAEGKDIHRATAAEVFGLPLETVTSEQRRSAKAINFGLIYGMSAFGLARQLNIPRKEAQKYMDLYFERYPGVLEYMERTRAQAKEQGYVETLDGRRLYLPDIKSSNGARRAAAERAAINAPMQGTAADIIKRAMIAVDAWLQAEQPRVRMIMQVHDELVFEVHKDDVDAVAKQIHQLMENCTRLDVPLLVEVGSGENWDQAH", "assay": "DNA polymerase assay, Klenow fragment", "settings": "100 μM", "from_the_text": "as §1, §2"}, "human pol η": {"target": "T3, human pol η (Homo sapiens, UniProt Q9Y253)", "T3 construct": "A truncated form of human pol η (residues 1–511); His6 (C); made in house; host or cells: E. coli", "T3 sequence (Q9Y253 1-511)": "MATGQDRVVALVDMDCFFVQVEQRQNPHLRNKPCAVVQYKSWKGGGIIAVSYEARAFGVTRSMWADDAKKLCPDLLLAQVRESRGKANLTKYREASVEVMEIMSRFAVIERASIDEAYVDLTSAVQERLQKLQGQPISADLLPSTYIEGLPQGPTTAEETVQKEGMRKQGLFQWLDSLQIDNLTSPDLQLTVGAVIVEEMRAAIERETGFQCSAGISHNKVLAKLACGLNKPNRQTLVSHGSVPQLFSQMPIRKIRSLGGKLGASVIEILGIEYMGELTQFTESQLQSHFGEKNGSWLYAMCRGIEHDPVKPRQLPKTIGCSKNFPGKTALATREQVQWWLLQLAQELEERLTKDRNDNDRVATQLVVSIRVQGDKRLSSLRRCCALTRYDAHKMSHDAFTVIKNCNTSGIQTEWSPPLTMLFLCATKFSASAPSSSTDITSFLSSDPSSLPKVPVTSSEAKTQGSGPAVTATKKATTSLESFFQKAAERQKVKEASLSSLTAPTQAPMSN", "assay": "DNA polymerase assay, pol η", "from_the_text": "as §1, §2"}, "human telomerase": {"target": "human telomerase (Homo sapiens, UniProt O14746)", "sequence (O14746 whole entry)": "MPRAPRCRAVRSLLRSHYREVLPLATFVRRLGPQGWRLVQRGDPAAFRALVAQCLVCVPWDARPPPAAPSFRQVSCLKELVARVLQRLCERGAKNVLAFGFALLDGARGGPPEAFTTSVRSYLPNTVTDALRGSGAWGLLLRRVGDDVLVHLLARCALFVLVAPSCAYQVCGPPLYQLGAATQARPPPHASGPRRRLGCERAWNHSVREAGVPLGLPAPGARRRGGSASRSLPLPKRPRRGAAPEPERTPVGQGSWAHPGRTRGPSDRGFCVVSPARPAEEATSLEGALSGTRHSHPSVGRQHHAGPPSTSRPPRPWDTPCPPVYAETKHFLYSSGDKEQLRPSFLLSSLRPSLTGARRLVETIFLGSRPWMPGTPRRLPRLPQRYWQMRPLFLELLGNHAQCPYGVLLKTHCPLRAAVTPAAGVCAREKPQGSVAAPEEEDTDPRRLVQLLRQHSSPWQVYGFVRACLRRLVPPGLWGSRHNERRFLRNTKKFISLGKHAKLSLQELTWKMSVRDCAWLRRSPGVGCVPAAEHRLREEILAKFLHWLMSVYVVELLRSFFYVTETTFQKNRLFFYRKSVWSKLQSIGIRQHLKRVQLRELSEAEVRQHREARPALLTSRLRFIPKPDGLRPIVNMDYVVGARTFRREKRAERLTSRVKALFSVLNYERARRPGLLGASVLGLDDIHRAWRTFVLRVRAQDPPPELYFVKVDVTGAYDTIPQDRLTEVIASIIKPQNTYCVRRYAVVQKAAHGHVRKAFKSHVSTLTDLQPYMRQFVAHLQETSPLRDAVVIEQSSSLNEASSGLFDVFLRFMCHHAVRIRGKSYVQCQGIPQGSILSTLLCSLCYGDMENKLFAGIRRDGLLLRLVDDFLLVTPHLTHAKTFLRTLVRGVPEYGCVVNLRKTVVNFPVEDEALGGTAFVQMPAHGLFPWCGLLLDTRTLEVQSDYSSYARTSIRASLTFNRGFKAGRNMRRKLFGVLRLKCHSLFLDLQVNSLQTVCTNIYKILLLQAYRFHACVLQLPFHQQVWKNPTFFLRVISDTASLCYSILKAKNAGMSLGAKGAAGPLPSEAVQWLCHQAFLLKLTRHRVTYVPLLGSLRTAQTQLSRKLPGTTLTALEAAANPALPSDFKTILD", "assay": "Telomerase assay", "settings": "100 μM", "description": "The activities of calf primase of pol α, human telomerase, T7 RNA polymerase, mouse IMP dehydrogenase, human DNA topoisomerases I and II, T4 polynucleotide kinase and bovine DNase I were measured in standard assays according to the manufacturer’s specifications, as described by Tamiya-Koizumi et al., Oda et al., Nakayama et al., Mizushina et al., Ishimaru et al., Soltis et al. and Lu et al., respectively."}, "human pol δ": {"target": "T4, human pol δ (Homo sapiens, UniProt P28340)", "T4 construct": "purified by nuclear fractionation of human peripheral blood cancer cells (Molt-4); endogenous in cells; host or cells: Molt-4", "assay": "DNA polymerase assay, pol δ", "settings": "100 μM", "from_the_text": "as §1, §2"}, "fruit fly pol ɛ": {"target": "T5, fruit fly pol ɛ (Drosophila melanogaster, UniProt Q9VCN1)", "T5 construct": "purified from early embryos of Drosophila melanogaster; from tissue; host or cells: early embryos of Drosophila melanogaster", "T5 sequence (Q9VCN1 whole entry)": "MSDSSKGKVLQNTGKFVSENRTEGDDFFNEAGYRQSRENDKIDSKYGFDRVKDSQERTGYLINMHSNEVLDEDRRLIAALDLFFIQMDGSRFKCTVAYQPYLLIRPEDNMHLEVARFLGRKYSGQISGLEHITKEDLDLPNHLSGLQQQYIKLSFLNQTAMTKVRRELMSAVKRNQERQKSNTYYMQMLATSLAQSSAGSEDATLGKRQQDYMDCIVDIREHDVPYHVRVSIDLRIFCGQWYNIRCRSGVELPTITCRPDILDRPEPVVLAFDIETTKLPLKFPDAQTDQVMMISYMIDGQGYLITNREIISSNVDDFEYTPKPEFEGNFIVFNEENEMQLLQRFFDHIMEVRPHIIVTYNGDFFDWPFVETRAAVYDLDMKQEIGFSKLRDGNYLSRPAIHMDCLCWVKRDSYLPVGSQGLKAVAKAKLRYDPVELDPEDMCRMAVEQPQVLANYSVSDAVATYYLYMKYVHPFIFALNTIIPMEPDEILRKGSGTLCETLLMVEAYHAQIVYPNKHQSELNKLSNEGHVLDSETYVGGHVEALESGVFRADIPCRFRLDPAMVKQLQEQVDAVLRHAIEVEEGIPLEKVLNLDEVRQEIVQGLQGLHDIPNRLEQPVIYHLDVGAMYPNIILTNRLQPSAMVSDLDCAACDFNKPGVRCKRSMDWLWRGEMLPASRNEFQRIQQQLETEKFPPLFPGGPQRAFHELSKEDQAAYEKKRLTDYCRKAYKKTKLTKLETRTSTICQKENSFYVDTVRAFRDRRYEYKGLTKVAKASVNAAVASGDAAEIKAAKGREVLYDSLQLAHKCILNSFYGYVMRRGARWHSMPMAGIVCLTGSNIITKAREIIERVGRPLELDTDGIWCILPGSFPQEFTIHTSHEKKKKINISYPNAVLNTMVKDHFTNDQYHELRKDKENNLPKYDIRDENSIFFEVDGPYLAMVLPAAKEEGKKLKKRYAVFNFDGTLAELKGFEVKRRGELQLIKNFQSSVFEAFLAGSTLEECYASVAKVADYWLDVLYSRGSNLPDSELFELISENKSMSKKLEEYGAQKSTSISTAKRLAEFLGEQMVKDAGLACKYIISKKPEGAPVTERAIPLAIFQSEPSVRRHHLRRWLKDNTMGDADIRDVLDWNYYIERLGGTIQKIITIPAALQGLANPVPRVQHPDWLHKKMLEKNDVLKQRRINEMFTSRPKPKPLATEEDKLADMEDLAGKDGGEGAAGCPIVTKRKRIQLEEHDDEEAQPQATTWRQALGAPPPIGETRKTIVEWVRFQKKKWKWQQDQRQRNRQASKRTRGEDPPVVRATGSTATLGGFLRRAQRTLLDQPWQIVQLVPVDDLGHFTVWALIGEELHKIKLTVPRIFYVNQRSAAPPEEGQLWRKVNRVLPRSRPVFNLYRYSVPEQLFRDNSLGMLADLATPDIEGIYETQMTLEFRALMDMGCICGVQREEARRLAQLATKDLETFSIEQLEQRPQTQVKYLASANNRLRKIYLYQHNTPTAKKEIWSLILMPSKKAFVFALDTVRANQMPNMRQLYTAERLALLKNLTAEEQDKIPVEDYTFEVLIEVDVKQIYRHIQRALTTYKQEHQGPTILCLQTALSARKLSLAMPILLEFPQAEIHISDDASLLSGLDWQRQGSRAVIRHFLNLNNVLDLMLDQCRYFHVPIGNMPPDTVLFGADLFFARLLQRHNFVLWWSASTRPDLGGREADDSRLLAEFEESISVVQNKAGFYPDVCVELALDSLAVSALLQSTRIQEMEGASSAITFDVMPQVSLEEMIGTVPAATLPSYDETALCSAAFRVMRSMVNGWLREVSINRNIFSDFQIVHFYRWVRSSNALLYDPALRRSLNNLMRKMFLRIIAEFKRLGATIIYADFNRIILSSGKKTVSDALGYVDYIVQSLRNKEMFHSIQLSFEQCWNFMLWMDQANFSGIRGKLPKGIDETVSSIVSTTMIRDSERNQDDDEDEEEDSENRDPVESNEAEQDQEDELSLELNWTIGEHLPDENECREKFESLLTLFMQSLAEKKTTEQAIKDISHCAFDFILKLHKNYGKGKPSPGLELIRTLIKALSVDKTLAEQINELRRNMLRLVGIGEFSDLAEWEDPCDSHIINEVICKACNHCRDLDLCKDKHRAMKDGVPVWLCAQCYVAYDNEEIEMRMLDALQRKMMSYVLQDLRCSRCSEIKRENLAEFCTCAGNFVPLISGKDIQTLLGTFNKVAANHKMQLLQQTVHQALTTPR", "assay": "DNA polymerase assay, insect pol ɛ", "settings": "100 μM", "from_the_text": "as §1, §2"}, "Taq pol": {"target": "T6, Taq pol (Thermus aquaticus, UniProt P19821)", "T6 construct": "purchased Takara Bio (Tokyo, Japan)", "assay": "DNA polymerase assay, Taq pol", "settings": "100 μM; 74 °C", "from_the_text": "as §1, §2"}},
  "data": [
    {"smiles": "C/C=C/c1occ(C(=O)c2c(OC)cc(OC)cc2C(=O)OC)c(=O)c1OC", "note": "[compound 1, 3-O-methylfunicone]", "values": [
      {"measurement": "effect on pol ɛ activity", "setting": "human pol ɛ", "result": "hardly influenced"},
      {"measurement": "effect on Klenow fragment of E. coli pol I activity", "setting": "[1]", "result": "no effect"},
      {"measurement": "effect on pol η activity", "setting": "human pol η; 100 μM", "result": "selectively inhibit"},
      {"measurement": "IC50", "setting": "human pol η; poly(dA)/oligo(dT)18 and dTTP, 0.05 units enzyme, read-out: 50% inhibition of pol η (IC50)", "result": 50.1, "unit": "µM"},
      {"measurement": "effect on human telomerase activity", "setting": "human telomerase", "result": "did not influence"},
      {"measurement": "effect on pol δ activity", "setting": "human pol δ", "result": "hardly influenced"},
      {"measurement": "effect on fruit fly pol ɛ activity", "setting": "fruit fly pol ɛ", "result": "hardly influenced"},
      {"measurement": "effect on Taq pol activity", "setting": "Taq pol", "result": "no effect"}
    ]}
  ]
}
